Active and inactive are the calls of the source.
Experiments:
[1] = target: Glyceraldehyde-3-phosphate dehydrogenase (Homo sapiens, UniProt P04406)
[2] = target: T1, Alkaline phosphatase, tissue-nonspecific isozyme (Homo sapiens, UniProt P05186); experiment: potency against alkaline phosphatase TNAP – biochemical, luminescent, dose response, SAR follow-up (AID 1056)
T1 sequence (P05186 whole entry): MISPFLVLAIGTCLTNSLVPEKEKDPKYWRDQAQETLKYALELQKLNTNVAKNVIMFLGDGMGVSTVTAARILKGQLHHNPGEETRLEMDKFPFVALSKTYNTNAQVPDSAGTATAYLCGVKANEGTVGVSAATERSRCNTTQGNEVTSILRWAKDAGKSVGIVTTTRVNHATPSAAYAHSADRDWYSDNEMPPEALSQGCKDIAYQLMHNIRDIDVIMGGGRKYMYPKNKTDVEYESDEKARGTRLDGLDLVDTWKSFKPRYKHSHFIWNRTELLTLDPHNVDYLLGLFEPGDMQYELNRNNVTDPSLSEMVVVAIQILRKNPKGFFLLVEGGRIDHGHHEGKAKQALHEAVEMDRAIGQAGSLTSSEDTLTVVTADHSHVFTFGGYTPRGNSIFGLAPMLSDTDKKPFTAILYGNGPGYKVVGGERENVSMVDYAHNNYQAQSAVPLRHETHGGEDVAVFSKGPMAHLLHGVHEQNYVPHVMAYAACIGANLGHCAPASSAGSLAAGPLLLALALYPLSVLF

[3] = target: Peroxisome proliferator-activated receptor gamma/Nuclear receptor coactivator 1 (Homo sapiens, UniProt P37231); experiment: (§1) TR-FRET dose response biochemical High Throughput Screening assay for agonists of the steroid receptor coactivator 1 (SRC-1) recruitment by the peroxisome proliferator-activated receptor gamma (PPAR gamma): non-selective agonists. [Related pubchem assays (depositor defined):AID1300, AID1808, AID504735, AID631]; type: protein assay
[4] = target: Peroxisome proliferator-activated receptor gamma/Nuclear receptor coactivator 3 (Homo sapiens, UniProt P37231); experiment: as §1, with “3 (SRC-3)” for “1 (SRC-1)”, “assays: 1301 (Confirmation screen.), 1048 (Primary screen.)]” for “assays (depositor defined):AID1300, AID1808, AID504735, AID631]”; type: functional
[5] = target: Peroxisome proliferator-activated receptor gamma/Nuclear receptor coactivator 2 (Homo sapiens, UniProt P37231); experiment: TR-FRET dose response biochemical High Throughput Screening assay for agonists of the steroid receptor coactivator 2 (SRC-2) recruitment by the peroxisome proliferator-activated receptor gamma (PPAR gamma): non-selective agonists. [Related pubchem assays: 1297, 1032 ]; type: functional
[6] = HEK-293T cell viability reduction – luminescence, B-cell screen hits, cytotoxicity control for BCR NF-kB inhibitor project, dose response (AID 489021); type: functional, cell-based;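 also: HEK-293T cells carrying an NF-kB luciferase reporter; cells exposed to compound for about 14 hours before viability readout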

Chain of Peroxisome proliferator-activated receptor gamma/Nuclear receptor coactivator 3 (P37231 whole entry): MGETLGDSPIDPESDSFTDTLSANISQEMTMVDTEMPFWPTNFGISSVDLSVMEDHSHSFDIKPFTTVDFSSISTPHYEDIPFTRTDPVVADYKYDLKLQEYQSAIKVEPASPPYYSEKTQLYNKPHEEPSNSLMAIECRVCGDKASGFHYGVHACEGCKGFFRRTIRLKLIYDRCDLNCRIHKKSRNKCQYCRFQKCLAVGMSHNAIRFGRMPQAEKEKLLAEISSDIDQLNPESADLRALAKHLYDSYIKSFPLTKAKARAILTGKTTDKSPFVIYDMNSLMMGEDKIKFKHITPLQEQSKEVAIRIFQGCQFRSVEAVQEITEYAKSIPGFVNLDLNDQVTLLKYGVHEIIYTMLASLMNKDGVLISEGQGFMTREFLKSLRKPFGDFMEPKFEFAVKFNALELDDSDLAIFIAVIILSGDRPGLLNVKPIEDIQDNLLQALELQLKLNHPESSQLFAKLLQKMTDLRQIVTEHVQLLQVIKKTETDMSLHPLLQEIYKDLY
Chain of Peroxisome proliferator-activated receptor gamma/Nuclear receptor coactivator 3 (Q9Y6Q9 whole entry, further chain): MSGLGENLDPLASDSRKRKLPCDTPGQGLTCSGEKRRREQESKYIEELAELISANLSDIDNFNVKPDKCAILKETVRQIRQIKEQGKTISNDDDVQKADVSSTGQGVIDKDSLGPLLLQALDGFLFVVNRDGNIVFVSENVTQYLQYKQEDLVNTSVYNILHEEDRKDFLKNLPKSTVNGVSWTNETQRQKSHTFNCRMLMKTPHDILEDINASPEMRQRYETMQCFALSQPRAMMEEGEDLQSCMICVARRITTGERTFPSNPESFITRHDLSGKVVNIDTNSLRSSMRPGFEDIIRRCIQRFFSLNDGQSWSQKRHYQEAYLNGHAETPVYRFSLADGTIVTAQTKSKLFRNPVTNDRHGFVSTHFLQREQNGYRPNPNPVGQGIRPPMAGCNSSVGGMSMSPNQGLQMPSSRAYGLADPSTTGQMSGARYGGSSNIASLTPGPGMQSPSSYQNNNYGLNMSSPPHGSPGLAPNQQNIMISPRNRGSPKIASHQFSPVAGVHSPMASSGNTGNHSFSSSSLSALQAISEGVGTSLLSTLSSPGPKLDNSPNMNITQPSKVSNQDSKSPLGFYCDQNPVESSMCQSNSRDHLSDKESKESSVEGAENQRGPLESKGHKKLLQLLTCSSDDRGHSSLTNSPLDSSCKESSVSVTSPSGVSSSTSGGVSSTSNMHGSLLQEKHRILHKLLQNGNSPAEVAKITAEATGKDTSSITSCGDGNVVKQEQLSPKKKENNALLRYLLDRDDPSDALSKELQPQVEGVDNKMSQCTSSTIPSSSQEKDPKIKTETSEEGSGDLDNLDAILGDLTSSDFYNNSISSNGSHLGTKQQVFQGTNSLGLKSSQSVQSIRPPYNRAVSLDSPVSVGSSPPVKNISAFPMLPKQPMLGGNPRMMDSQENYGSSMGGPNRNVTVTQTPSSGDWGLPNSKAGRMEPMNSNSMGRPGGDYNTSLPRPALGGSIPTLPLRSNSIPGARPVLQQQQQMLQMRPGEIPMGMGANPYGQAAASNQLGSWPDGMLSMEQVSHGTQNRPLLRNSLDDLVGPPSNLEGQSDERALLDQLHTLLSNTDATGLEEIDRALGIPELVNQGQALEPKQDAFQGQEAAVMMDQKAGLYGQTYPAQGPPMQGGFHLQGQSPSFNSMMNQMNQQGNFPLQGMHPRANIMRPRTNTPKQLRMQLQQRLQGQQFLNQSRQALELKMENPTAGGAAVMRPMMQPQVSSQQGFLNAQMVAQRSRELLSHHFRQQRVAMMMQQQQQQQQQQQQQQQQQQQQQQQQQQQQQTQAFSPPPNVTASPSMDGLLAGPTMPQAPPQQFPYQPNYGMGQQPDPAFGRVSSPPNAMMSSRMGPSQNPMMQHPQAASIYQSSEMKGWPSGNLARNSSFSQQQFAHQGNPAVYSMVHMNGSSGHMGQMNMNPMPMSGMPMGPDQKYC
Chain of Peroxisome proliferator-activated receptor gamma/Nuclear receptor coactivator 2 (P37231 whole entry): as the sequence (P37231 whole entry) above
Chain of Peroxisome proliferator-activated receptor gamma/Nuclear receptor coactivator 2 (Q15596 whole entry, further chain): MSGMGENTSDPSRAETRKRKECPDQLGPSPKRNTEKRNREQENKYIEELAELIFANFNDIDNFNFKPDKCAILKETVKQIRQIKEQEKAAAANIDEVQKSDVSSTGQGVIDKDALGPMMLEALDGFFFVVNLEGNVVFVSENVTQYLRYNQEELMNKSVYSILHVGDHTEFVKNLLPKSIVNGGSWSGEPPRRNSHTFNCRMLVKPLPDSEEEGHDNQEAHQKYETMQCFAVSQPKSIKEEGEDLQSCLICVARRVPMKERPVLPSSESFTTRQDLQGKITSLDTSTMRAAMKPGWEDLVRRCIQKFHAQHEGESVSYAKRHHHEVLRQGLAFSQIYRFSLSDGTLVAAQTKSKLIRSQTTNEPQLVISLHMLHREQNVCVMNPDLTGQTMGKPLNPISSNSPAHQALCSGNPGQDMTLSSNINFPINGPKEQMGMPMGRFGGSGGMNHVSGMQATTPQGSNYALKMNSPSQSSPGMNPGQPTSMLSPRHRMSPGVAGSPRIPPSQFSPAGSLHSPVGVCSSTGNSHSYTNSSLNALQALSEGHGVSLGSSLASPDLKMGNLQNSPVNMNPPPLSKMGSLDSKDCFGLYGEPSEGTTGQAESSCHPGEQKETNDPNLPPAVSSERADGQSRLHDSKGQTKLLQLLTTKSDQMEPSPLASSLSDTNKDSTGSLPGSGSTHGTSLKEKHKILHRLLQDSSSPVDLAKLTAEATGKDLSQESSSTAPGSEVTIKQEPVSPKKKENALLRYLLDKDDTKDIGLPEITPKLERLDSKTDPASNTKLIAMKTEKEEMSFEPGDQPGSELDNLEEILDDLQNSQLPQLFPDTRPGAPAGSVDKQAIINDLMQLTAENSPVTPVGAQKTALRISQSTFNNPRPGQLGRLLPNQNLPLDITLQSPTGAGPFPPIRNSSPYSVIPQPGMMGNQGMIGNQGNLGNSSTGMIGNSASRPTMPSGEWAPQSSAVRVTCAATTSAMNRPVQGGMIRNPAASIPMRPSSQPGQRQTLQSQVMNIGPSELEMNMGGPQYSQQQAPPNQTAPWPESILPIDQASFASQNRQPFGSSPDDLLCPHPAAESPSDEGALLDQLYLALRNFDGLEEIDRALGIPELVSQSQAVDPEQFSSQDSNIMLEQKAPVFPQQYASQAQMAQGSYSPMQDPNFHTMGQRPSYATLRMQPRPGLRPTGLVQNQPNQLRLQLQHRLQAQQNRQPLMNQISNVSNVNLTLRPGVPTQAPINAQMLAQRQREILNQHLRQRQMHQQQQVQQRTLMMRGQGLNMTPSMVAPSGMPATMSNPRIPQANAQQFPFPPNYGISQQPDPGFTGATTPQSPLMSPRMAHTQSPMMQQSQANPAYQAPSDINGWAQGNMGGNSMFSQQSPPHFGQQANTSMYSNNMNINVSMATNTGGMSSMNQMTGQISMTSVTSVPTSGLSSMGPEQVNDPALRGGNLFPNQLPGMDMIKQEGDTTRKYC
Chain of Glyceraldehyde-3-phosphate dehydrogenase (P04406 whole entry): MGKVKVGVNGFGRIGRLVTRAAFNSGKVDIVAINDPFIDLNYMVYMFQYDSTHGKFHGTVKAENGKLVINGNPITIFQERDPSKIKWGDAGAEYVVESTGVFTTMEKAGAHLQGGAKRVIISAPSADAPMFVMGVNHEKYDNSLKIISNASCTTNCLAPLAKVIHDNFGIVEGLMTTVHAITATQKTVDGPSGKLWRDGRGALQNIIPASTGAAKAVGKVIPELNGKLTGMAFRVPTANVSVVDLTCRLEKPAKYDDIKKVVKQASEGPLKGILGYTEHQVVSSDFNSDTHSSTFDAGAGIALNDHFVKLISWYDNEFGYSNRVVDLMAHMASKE

Row | Structure (SMILES) | IC50 [1] | IC50 [2] | EC50 [3] | EC50 [4] | EC50 [5] | IC50 [6]
1 | Cc1c(C(=O)O)nnn1-c1ccc(F)cc1 | > 100 µM (not active) | > 100 µM (inactive) |  |  |  | 
2 | COc1ccc2nc(SCc3cccnc3)c(C#N)cc2c1 |  |  | 9.56 µM (active) | 22.1 µM (not active) | 9.26 µM (active) | 
3 | C=CCOc1ccc(NC(=O)C(=O)NCCCn2ccnc2)cc1 |  |  |  |  |  | > 80 µM (inactive)
4 | O=C(CSc1ncnc2c1oc1ccccc12)Nc1nc2ccccc2s1 |  |  | > 79.4 µM (inactive) | > 79.4 µM (not active) | > 79.4 µM (not active) | 

From ChEMBL document CHEMBL1201862, “PubChem BioAssay data set” (2004)
